Legend:
Experiment in all cases: relative viability (nuclei count vs DMSO), 5 days (fraction); higher = more cells survive
Adavosertib + Luminespib = compound: C=CCn1c(=O)c2cnc(Nc3ccc(N4CCN(C)CC4)cc3)nc2n1-c1cccc(C(C)(C)O)n1 [Adavosertib] + CCNC(=O)c1noc(-c2cc(C(C)C)c(O)cc2O)c1-c1ccc(CN2CCOCC2)cc1 [Luminespib] (partner 0.01 µM)
How it was run: (§1)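 Lung cancer cell lines in 1536-well plates were dosed by pin tool the day after seeding, either with one drug alone or with a fixed anchor-drug dose plus five library-drug doses (not always all listed) in √10 steps. After 5 days, cells were fixed and their nuclei stained in one step (final 0.05% Triton X-100, 1% formaldehyde, 1 ug/ml Hoechst), then counted on 4× images. Relative viability is the nuclei count in treated wells divided by that in vehicle wells. Values are medians of duplicate plates.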

Adavosertib + Olaparib = compound: C=CCn1c(=O)c2cnc(Nc3ccc(N4CCN(C)CC4)cc3)nc2n1-c1cccc(C(C)(C)O)n1 [Adavosertib] + O=C(c1cc(Cc2n[nH]c(=O)c3ccccc23)ccc1F)N1CCN(C(=O)C2CC2)CC1 [Olaparib] (partner 8 µM)
How it was run: as §1

Nelarabine + Linsitinib = compound: COc1nc(N)nc2c1ncn2[C@@H]1O[C@H](CO)[C@@H](O)[C@@H]1O [Nelarabine] + C[C@]1(O)C[C@@H](c2nc(-c3ccc4ccc(-c5ccccc5)nc4c3)c3c(N)nccn32)C1 [Linsitinib] (partner 1 µM)
How it was run: as §1

Nelarabine + Decitabine = compound: COc1nc(N)nc2c1ncn2[C@@H]1O[C@H](CO)[C@@H](O)[C@@H]1O [Nelarabine] + Nc1ncn([C@H]2C[C@H](O)[C@@H](CO)O2)c(=O)n1 [Decitabine] (partner 2 µM)
How it was run: as §1

| Cell Line | relative viability (Adavosertib + Luminespib; first compound 0.01 µM) | relative viability (Adavosertib + Luminespib; first compound 0.03162 µM) | relative viability (Adavosertib + Luminespib; first compound 0.1 µM) | relative viability (Adavosertib + Luminespib; first compound 0.3162 µM) | relative viability (Adavosertib + Olaparib; first compound 0.01 µM) | relative viability (Adavosertib + Olaparib; first compound 0.03162 µM) | relative viability (Adavosertib + Olaparib; first compound 0.1 µM) | relative viability (Adavosertib + Olaparib; first compound 0.3162 µM) | relative viability (Nelarabine + Linsitinib; first compound 0.01 µM) | relative viability (Nelarabine + Linsitinib; first compound 0.03162 µM) | relative viability (Nelarabine + Linsitinib; first compound 0.1 µM) | relative viability (Nelarabine + Linsitinib; first compound 0.3162 µM) | relative viability (Nelarabine + Linsitinib; first compound 1 µM) | relative viability (Nelarabine + Decitabine; first compound 0.01 µM) | relative viability (Nelarabine + Decitabine; first compound 0.03162 µM) | relative viability (Nelarabine + Decitabine; first compound 0.1 µM) | relative viability (Nelarabine + Decitabine; first compound 0.3162 µM) | relative viability (Nelarabine + Decitabine; first compound 1 µM) |
| --- | --- | --- | --- | --- | --- | --- | --- | --- | --- | --- | --- | --- | --- | --- | --- | --- | --- | --- |
| NCI-H647 | 0.128 | 0.179 | 0.151 | 0.136 | 0.549 | 0.581 | 0.459 | 0.209 | 1.7 | 1.02 | 1.26 | 1.21 | 1.35 | 0.483 | 0.385 | 0.381 | 0.357 | 0.38 |
| NCI-H1734 | 0.234 | 0.241 | 0.184 | 0.191 | 0.584 | 0.613 | 0.562 | 0.352 | 0.954 | 0.855 | 0.932 | 0.931 | 0.939 | 0.551 | 0.458 | 0.491 | 0.486 | 0.499 |
| NCI-H727 | 0.299 | 0.363 | 0.301 | 0.24 | 0.73 | 0.845 | 0.683 | 0.744 | 0.28 | 0.331 | 0.299 | 0.306 | 0.271 | 0.819 | 0.938 | 0.918 | 0.769 | 0.463 |
| NCI-H2009 | 1.01 | 1.07 | 1.06 | 0.888 | 0.686 | 0.739 | 0.802 | 0.777 | 1.29 | 1.26 | 1.14 | 1.23 | 1.19 | 0.412 | 0.331 | 0.398 | 0.447 | 0.385 |
| LC-2-ad | 1.01 | 1.11 | 1.26 | 1.08 | 0.7 | 0.725 | 0.803 | 0.786 | 0.919 | 0.832 | 0.823 | 0.758 | 0.797 | 0.904 | 0.865 | 0.757 | 0.932 | 0.73 |
| NCI-H2085 | 0.61 | 0.411 | 0.46 | 0.35 | 0.831 | 0.753 | 0.829 | 0.759 | 1.3 | 0.747 | 0.848 | 0.883 | 0.867 | 0.536 | 0.535 | 0.52 | 0.605 | 0.439 |
| NCI-H661 | 0.898 | 0.924 | 1.06 | 0.557 | 0.779 | 0.828 | 0.721 | 0.449 | 0.719 | 0.859 | 0.723 | 0.555 | 0.535 | 0.625 | 0.614 | 0.599 | 0.628 | 0.515 |
| H3255 | 0.801 | 1.03 | 0.937 | 0.95 | 0.604 | 0.522 | 0.667 | 0.583 | 1.31 | 1.09 | 1.12 | 0.885 | 0.957 | 0.712 | 0.563 | 0.574 | 0.64 | 0.632 |
| NCI-H1793 | 0.148 | 0.21 | 0.179 | 0.156 | 0.739 | 0.794 | 0.746 | 0.529 | 1.3 | 0.801 | 0.863 | 0.724 | 0.84 | 0.291 |  | 0.535 | 0.595 | 0.513 |
| NCI-H441 | 0.291 | 0.346 | 0.418 | 0.276 | 0.533 | 0.477 | 0.577 | 0.462 | 0.679 | 0.605 | 0.614 | 0.52 | 0.603 | 0.214 | 0.222 | 0.23 | 0.231 | 0.22 |
| NCI-H838 | 0.293 | 0.302 | 0.313 | 0.284 | 0.784 | 0.805 | 0.804 | 0.613 | 1.29 | 0.907 | 1.06 | 1.11 | 1.13 | 0.54 | 0.432 | 0.473 | 0.513 | 0.466 |
| NCI-H460 | 0.0322 | 0.0312 | 0.0317 | 0.0275 | 0.391 | 0.376 | 0.308 | 0.405 | 1.09 | 0.891 | 1.12 | 1.21 | 0.731 | 0.707 | 0.726 | 0.476 | 0.525 | 0.539 |
| PC-14 | 0.151 | 0.165 | 0.219 | 0.141 | 0.44 | 0.211 | 0.176 | 0.0727 | 1.03 | 0.96 | 0.986 | 0.979 | 1.03 | 0.225 | 0.231 | 0.202 | 0.219 | 0.224 |
| LXF-289 | 0.598 | 0.651 | 0.654 | 0.783 | 1.1 | 1.06 | 1.13 | 1.02 | 1.01 | 0.935 | 0.969 | 0.997 | 0.949 | 0.43 | 0.414 | 0.379 | 0.39 | 0.37 |
| UMC-11 | 1.02 | 0.936 | 1.15 | 1 | 0.411 | 0.429 | 0.452 | 1.03 | 1.34 | 0.768 | 0.949 | 0.987 | 0.896 | 0.71 | 0.551 | 0.578 | 0.589 | 0.61 |
| A-427 | 0.877 | 1 | 1.05 | 0.634 | 0.76 | 0.716 | 0.815 | 0.701 | 1.03 | 1.12 | 1.11 | 1.15 | 1.06 | 0.551 | 0.576 | 0.476 | 0.528 | 0.535 |
| LOU-NH91 | 0.34 | 0.375 | 0.357 | 0.32 | 0.857 | 0.917 | 0.946 | 0.928 | 1.02 | 0.953 | 0.865 | 0.886 | 0.947 | 0.896 | 0.755 | 0.766 | 0.802 | 0.809 |
| RERF-LC-KJ | 1.32 | 1.33 | 1.29 | 1.16 | 0.952 | 0.986 | 1.05 | 0.955 | 0.908 | 1.06 | 0.915 | 0.907 | 0.884 | 0.764 | 0.639 | 0.705 | 0.699 | 0.711 |
| NCI-H1666 | 0.977 | 0.946 | 0.994 | 1.02 | 0.774 | 0.754 | 0.745 | 0.738 | 0.911 | 0.766 | 0.906 | 0.797 | 0.788 | 0.651 | 0.843 | 0.736 | 0.754 | 0.668 |
| NCI-H322M | 0.764 | 0.789 | 0.57 | 0.398 | 0.771 | 0.801 | 0.699 | 0.425 | 1.05 | 1.11 | 0.816 | 0.901 | 0.924 | 0.68 | 0.662 | 0.659 | 0.718 | 0.678 |
| NCI-H1792 | 0.595 | 0.446 | 0.456 | 0.569 | 0.464 | 0.461 | 0.378 | 0.459 | 0.621 |  | 0.548 | 0.702 | 0.716 | 0.642 | 0.428 | 0.573 | 0.579 | 0.634 |

— the supplement of paper PMC10307832
